Results: PMC5678437, “A new antagonist for CCR4 attenuates allergic lung inflammation in a mouse model of asthma” (Scientific Reports, 2017)
Where two headings read alike, the source gives them in different places.

Tests used:
[1] = test system: OVA-induced asthmatic mice; assay: BALF total cell and cell differential counts in OVA-induced asthmatic mice; type: in vivo, BALB/c mice
Procedure: (§1) Male BALB/c 6 week old mice were purchased from the Experimental Animal Center of Zhejiang University. All mice were raised in a specific pathogen-free animal facility. All animal experiments were carried out according to the guidelines for the care and use of laboratory animals and were approved by the ethics committee of Zhejiang University and Peking University, China.
(§2) Mice were sensitized and challenged with chicken egg OVA (sigma-Aldrich, St Louis, MO, USA) as described in details previously. Briefly, after sensitized by intraperitoneal injection of 100 μl (80 μg) OVA in 100 μl alum (Pierce, Rockford, IL, USA) on days 0 and 14, mice were exposure to 1% OVA aerosols for 40 min on days 24–26. Control mice were injected intraperitoneally with saline and exposed to saline aerosols.
(§3) Compound 8a was dissolved in saline with DMSO (0.5%). Half an hour before each OVA challenge, the groups of mice treated with various doses of compound 8a (0.2, 1, 5 mg) inhaled aerosolized compound 8a for 45 min on days 24–26. Compound 8a aerosols were produced by using a Plexiglas chamber and ultrasonic nebulizer. While the budesonide (BUD) group were administered with 5 mg budesonide, and the vehicle group were treated with compound-dissolved vehicle. The Saline was treated as the control.
Twenty-four hours after the last exposure, collection of BALF and cell count was performed as previously described. Briefly, lavage was performed by instilling 0.4 ml PBS into lungs and with drawn to collect the cells three times. Total BALF cells were counted. After be centrifuged, the remaining cells was spun onto glass slides, and stained with Wright–Giemsa stain. Differential counts were evaluated by counting 400 total cells.

[2] = test system: OVA-induced asthmatic mice; assay: Airway hyperresponsiveness to aerosolized methacholine in OVA-induced asthmatic mice; type: in vivo, BALB/c mice; conditions: 5 mg inhaled aerosol, days 24-26; 24 h after final OVA challenge
Procedure: as §1, §2, §3
Twenty-four hours after the last challenge, mice were anesthetized and tracheotomized with a cannula, then ventilated at a fixed breathing rate. Once being stabilized, mice were challenged via the airways with saline or increasing concentrations of Mch (1, 2, 4, 8, 16 mg/ml) by nebulization. Airway resistance was measured by FinePointe Series RC Sites (Buxco Research System). Changes in airway resistance were calculated for each Mch concentration.

[3] = test system: OVA-induced asthmatic mice; assay: Lung histology (H&E) inflammation score in OVA-induced asthmatic mice; type: in vivo, BALB/c mice; conditions: 5 mg inhaled aerosol; vs OVA mice treated with vehicle
Procedure: as §1, §2
(§4) Compound 8a was dissolved in saline with DMSO (0.5%). Half an hour before each OVA challenge, the groups of mice treated with various doses of compound 8a (0.2, 1, 5 mg) inhaled aerosolized compound 8a for 45 min on days 24–26. Compound 8a aerosols were produced by using a Plexiglas chamber and ultrasonic nebulizer. […]
(§5) After sacrificed, the lungs were fixed in formalin overnight. […] Inflammation was scored according to published guidelines. And PAS-stained goblet cells in airway epithelium were quantified as described previously.

IL-4 = IL-4 in lung homogenate by ELISA in OVA-induced asthmatic mice; type: in vivo, BALB/c mice; conditions: 5 mg inhaled aerosol; after OVA challenge
Procedure: as §1, §2
Compound 8a was dissolved in saline with DMSO (0.5%). Half an hour before each OVA challenge, the groups of mice treated with various doses of compound 8a (0.2, 1, 5 mg) inhaled aerosolized compound 8a for 45 min on days 24–26. […]
Twenty-four hours after the last challenge, lungs were removed from control or asthmatic mice, and they were cut into pieces and homogenized in 500 μl PBS, centrifuged (2000 rpm, 10 min) and the supernatant collected. The concentration of IL-4 in lungs were determined by ELISA kit (Sensitivity: 2 pg/ml, R&D Systems, Minneap-olis, MN, USA) following the manufacturer’s protocol.

[4] = test system: OVA-induced asthmatic mice; assay: Airway mucus production (PAS staining) in OVA-induced asthmatic mice; type: in vivo, BALB/c mice; conditions: compound 8a 0.2, 1, 5 mg; budesonide 5 mg; vs vehicle treated group
Procedure: as §1, §2, §4, §5

CCR4 = target: T1, CCR4 (Homo sapiens, UniProt P51679); assay: Radio ligand competition binding assay on CCR4 cell membrane extract; conditions: HEK293 CCR4 cell membrane extract, 4 °C, 24 h
T1 construct: expressed in transfected cells; cell membrane extract
T1 sequence (P51679 1-360): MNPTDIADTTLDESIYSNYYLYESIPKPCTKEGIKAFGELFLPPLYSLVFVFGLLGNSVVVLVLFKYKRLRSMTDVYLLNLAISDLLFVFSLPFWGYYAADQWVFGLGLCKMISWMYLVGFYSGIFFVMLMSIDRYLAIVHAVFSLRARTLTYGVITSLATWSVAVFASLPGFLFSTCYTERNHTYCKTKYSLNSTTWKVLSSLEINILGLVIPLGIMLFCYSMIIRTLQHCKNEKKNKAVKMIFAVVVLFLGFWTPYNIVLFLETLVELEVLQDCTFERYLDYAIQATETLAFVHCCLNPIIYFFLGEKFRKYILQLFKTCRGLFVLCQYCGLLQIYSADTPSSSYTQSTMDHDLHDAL
Procedure: A HEK293 cell line stably expressing CCR4-enhanced green fluorescent protein was established. CCL22, CCL17 and C27 were labeled with [^125I]. For competition binding assays, equivalent quantities of cell membrane extract and [^125I]-CCL22, [^125I]-CCL17 and [^125I]-C27 were incubated with varying quantities of unlabeled compound 8a, compound 6b and compound 22. All reactions were incubated at 4 °C for 24 h. After the binding step, 25% polyethylene glycol (6000–8000) and 0.5% human g-globulin were added, and the mixture was incubated at room temperature for 15 min. Binding complexes were obtained by centrifuging the mixture at 3500 rpm for 20 min at 4 °C, and radioactivity was evaluated. Results were corrected for “blank” background radiation, defined as the radioactivity precipitated by polyethylene glycol–g-globulin from the same amount of radioactive ligand in binding buffer in the absence of cells.

[5] = 5 mg inhaled aerosol, compared with vehicle treated group
[6] = compound 8a 0.2, 1, 5 mg, budesonide 5 mg, inhaled aerosol

| IC50 (CCR4; [125I]-C27, read-out: IC50, competitive binding with C27 to CCR4) [nM] | IC50 (CCR4; [125I]-CCL17, read-out: IC50, competitive binding with CCL17 to CCR4) [nM] | IC50 (CCR4; [125I]-CCL22, read-out: IC50, competitive binding with CCL22 to CCR4) [nM] | SMILES | absolute number of eosinophils in BALF [1, 5] | absolute number of lymphocytes in BALF [1, 5] | number of macrophages in BALF [1, 6] | number of neutrophils in BALF [1, 6] | AHR to methacholine compared with asthmatic mice treated with vehicle [2] | peribronchial and perivascular inflammation (H&E histology) [3] | expression of IL-4 in lungs (ELISA) (IL-4) | airway mucus production (PAS-stained cells) [4] |
| --- | --- | --- | --- | --- | --- | --- | --- | --- | --- | --- | --- |
|  |  |  | CCCC1O[C@@H]2C[C@H]3[C@@H]4CCC5=CC(=O)C=C[C@]5(C)[C@H]4[C@@H](O)C[C@]3(C)[C@]2(C(=O)CO)O1 (some centres unmarked) [budesonide, reference compound] | significantly decreased | significantly decreased | neither compound 8a nor budesonide affect | neither compound 8a nor budesonide affect | significantly lower | significantly attenuated | notably decreased | no effect |
| 489 | 104 | 360 | O=C([C@@H]1CSCCN1)N1CCN(c2nc(NCc3ccc(Cl)cc3Cl)c3cccnc3n2)CC1 [compound 6b, reference compound] |  |  |  |  |  |  |  |  |
